Earlier results as cited in patent US20050220753A1, “Hydrophilic polymers-flavoids conjugates and pharmaceutical compositions comprising them” (BEIJING JIANKAI TECHNOLOGY CO., LTD, priority 2002, published 2005).
Like-named read-outs stand apart in the source and are kept apart here.

Assays:
[1] = human, intravenously infused
[2] = rats, intravenous injection

**Q.** With O=c1c(-c2ccc(O)cc2)coc2c([C@@H]3O[C@H](CO)[C@@H](O)[C@H](O)[C@H]3O)c(O)ccc12 [Puerarin] as the compound, how does the elimination half-life [1] read?
**A.** 74 min

**Q.** Which results are given for O=c1cc(-c2ccccc2)oc2cc(O)c(O)c(O)c12 [Baicalein]?
**A.** absorption half-life [2]: 13 min; elimination half-life [2]: 42 min
